The nature of series [1]: AUC in Wistar rat at 5 mg/kg, po. The series is classed as ADME, organism-based. The arrangement: dose 5 mg/kg, route oral. The conditions noted are these: plasma.
In series [2] the target is T1, Disintegrin and metalloproteinase domain-containing protein 17 (Homo sapiens, UniProt P78536). Put plainly: Ratio of IC50 for human catalytic domain of TACE to IC50 for MMP2 (unknown origin).
Series [3] in a line: AUC in Wistar rat at 5 mg/kg, iv. The series is classed as ADME, organism-based. The arrangement: dose 5 mg/kg, route intravenous. The conditions noted are these: plasma.
The subject of series [4] is Rattus norvegicus. The series is described as follows: Toxicity in Wistar rat assessed as relative spleen weight at 100 mg/kg, po bid for 28 days (reference value: 0.201+/- 0.007 %). Details: dose 100 mg/kg, route oral. To be noted: in vivo, 672 h. The series is classed as organism-based.
Series [5] concerns the target T1, Disintegrin and metalloproteinase domain-containing protein 17. The series is described as follows: Ratio of IC50 for human catalytic domain of TACE to IC50 for MMP9 (unknown origin).
Series [6] shares this target. The series is described as follows: Inhibition of human catalytic domain of TACE assessed as inhibit the cleavage of the substrate by fluorescence-based FRET assay.
In series [7] the test system is Rattus norvegicus. The series is described as follows: Toxicity in Wistar rat assessed as body weight at 100 mg/kg, po bid for 28 days. The series is classed as organism-based. The arrangement: dose 100 mg/kg, route oral. To be noted: in vivo, 672 h.
Series [8] in a line: Oral bioavailability in Wistar rat at 5 mg/kg. The series is classed as ADME, organism-based. The conditions noted are these: in vivo.
The next series addresses T2, Matrilysin (Homo sapiens, UniProt P09237).
T2 sequence (P09237 whole entry): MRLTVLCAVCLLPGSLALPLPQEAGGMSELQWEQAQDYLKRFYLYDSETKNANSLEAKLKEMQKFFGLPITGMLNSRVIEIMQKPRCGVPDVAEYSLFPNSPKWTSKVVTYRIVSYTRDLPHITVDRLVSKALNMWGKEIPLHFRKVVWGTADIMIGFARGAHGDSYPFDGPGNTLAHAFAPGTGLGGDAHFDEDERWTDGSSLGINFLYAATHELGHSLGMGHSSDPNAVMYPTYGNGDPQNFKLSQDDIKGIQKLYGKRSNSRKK
The series is described as follows: Inhibition of MMP7 (unknown origin) by fluorescence-based FRET assay.

Series [9] addresses T1, Disintegrin and metalloproteinase domain-containing protein 17. The series is described as follows: Ratio of IC50 for human catalytic domain of TACE to IC50 for MMP3 (unknown origin).
Series [10] in a line: Tmax in Wistar rat at 5 mg/kg, po. The series is classed as ADME, organism-based. The arrangement: dose 5 mg/kg, route oral. The conditions noted are these: in vivo.
Series [11] has as its target 72 kDa type IV collagenase (Homo sapiens, UniProt P08253). The series is described as follows: Inhibition of MMP2 (unknown origin) by fluorescence-based FRET assay.
In a further series the target is Collagenase 3 (Homo sapiens, UniProt P45452). The series is described as follows: Inhibition of MMP13 (unknown origin) by fluorescence-based FRET assay.
Series [12] relates to Rattus norvegicus. The series is described as follows: Toxicity in Wistar rat assessed as aspartate aminotransferase at 100 mg/kg, po bid for 28 days (reference value: 147.16 +/- 11.75 U/L). The series is classed as organism-based. The arrangement: dose 100 mg/kg, route oral. The conditions noted are these: in vivo, 672 h.
Series [13] deals with Rattus norvegicus. The series is described as follows: Toxicity in Wistar rat assessed as RBC count at 100 mg/kg, po bid for 28 days (reference value: 7.38 +/- 0.11 10^6/ul). The conditions noted are these: in vivo, 672 h. The series is classed as organism-based. Details: dose 100 mg/kg, route oral.

Each structure is given as a SMILES string.

T1 sequence (P78536 whole entry, the tested form may be a part): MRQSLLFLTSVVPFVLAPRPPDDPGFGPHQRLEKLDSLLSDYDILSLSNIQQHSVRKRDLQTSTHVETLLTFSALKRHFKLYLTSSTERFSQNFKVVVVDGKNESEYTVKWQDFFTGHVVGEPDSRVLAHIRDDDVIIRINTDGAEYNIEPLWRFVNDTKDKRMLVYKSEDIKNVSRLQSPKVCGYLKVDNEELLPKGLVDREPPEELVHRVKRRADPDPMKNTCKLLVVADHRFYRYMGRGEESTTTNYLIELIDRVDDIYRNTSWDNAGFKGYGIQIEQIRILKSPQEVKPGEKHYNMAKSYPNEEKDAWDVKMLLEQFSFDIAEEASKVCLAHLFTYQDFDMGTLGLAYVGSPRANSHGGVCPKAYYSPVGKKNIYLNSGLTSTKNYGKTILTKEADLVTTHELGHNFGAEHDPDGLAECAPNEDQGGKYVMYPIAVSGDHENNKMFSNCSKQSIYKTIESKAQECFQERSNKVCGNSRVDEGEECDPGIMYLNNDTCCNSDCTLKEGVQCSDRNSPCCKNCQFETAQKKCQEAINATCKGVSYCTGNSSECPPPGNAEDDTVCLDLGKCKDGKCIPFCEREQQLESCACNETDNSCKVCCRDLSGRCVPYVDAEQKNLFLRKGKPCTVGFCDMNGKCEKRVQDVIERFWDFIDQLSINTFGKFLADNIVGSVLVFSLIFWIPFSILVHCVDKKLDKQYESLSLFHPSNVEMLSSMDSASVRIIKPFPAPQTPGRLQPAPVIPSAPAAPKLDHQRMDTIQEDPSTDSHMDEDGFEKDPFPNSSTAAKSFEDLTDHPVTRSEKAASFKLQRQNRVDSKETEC
Chain of 72 kDa type IV collagenase (P08253 whole entry): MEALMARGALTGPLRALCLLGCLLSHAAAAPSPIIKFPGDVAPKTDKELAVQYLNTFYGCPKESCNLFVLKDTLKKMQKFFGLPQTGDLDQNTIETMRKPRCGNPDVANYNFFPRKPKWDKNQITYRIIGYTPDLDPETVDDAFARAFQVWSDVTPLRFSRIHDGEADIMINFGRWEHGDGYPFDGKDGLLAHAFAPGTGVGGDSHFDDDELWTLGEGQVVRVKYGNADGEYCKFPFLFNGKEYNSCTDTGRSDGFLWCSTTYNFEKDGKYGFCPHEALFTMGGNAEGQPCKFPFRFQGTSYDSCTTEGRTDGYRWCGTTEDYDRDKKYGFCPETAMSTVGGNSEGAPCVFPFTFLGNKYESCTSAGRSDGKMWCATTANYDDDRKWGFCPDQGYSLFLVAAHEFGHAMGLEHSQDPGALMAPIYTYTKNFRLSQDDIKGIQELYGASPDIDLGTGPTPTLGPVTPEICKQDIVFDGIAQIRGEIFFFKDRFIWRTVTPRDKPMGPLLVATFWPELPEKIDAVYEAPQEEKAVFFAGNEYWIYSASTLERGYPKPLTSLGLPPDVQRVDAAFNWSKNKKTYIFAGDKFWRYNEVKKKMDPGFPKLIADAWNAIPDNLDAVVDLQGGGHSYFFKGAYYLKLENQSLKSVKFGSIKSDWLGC

The AUC is the area under the concentration-time curve, a measure of exposure. A lower AUC goes with low exposure. A word on the IC50: it is the concentration that gives 50% inhibition. One may read the bioavailability as dose-corrected exposure relative to a reference, in per cent. A lower bioavailability goes with poor availability. As usually defined, the Tmax is the time at which the peak concentration occurs. As for `COCCc1cc(COc2ccc([C@]3(N)CCN([C@H](CC(C)C)C(=O)NO)C3=O)cc2)c2ccccc2n1`, the AUC in series [1] turned out to be 11800 ng·h/mL; in series [3] it was 19700 ng·h/mL. The Ratio IC50 in series [2], in [5] and in series [9] was greater than 500 in each case. Also, the Activity in the series with Rattus norvegicus [4] is on record as 0.203%; in the series with Rattus norvegicus [7], “Non-toxic”; with Rattus norvegicus [12] it was 140.2 U/L; with Rattus norvegicus [13], 8.01 ×10⁶ /uL. Moreover, the IC50 in [6] is 2.3 nM; against Matrilysin, 1010 nM; in series [11], 1090 nM; against Collagenase 3, 1110 nM. The compound also showed a bioavailability in series [8] of 59.7%. The Tmax in [10] was determined as 19.8 min.

The record behind these values is ChEMBL document CHEMBL3217463, “Design, synthesis and biological evaluation of -lactam hydroxamate based TACE inhibitors” (Medchemcomm, 2011).
